Laboratory results reported in ChEMBL document CHEMBL1914455, “A dual fluorinated and iodinated radiotracer for PET and SPECT imaging of β-amyloid plaques in the brain” (Bioorg Med Chem Lett, 2011).
Calls of active or inactive are those of the source. The calls are words filed in the database; no cut-off is given here.

Tests used:
Blood [1] = assay: Biodistribution in ddY mouse blood assessed per gram of tissue at 0.2 to 0.4 uCi, iv after 60 mins; type: ADME, organism-based; conditions: in vivo, 1 h
Blood [2] = assay: Biodistribution in ddY mouse blood assessed per gram of tissue at 0.2 to 0.4 uCi, iv after 10 mins; type: ADME, organism-based; conditions: in vivo
Blood [3] = assay: Biodistribution in ddY mouse blood assessed per gram of tissue at 0.2 to 0.4 uCi, iv after 30 mins; type: ADME, organism-based; conditions: in vivo, 0.5 h
Blood [4] = assay: Biodistribution in ddY mouse blood assessed per gram of tissue at 0.2 to 0.4 uCi, iv after 2 mins; type: ADME, organism-based; conditions: in vivo
Liver [5] = assay: Biodistribution in ddY mouse liver assessed per gram of tissue at 0.2 to 0.4 uCi, iv after 2 mins; type: ADME, organism-based; conditions: in vivo
Liver [6] = assay: Biodistribution in ddY mouse liver assessed per gram of tissue at 0.2 to 0.4 uCi, iv after 10 mins; type: ADME, organism-based; conditions: in vivo
Liver [7] = assay: Biodistribution in ddY mouse liver assessed per gram of tissue at 0.2 to 0.4 uCi, iv after 30 mins; type: ADME, organism-based; conditions: in vivo, 0.5 h
Liver [8] = assay: Biodistribution in ddY mouse liver assessed per gram of tissue at 0.2 to 0.4 uCi, iv after 60 mins; type: ADME, organism-based; conditions: in vivo, 1 h
Kidney [9] = assay: Biodistribution in ddY mouse kidney assessed per gram of tissue at 0.2 to 0.4 uCi, iv after 2 mins; type: ADME, organism-based; conditions: in vivo
Kidney [10] = assay: Biodistribution in ddY mouse kidney assessed per gram of tissue at 0.2 to 0.4 uCi, iv after 10 mins; type: ADME, organism-based; conditions: in vivo
Kidney [11] = assay: Biodistribution in ddY mouse kidney assessed per gram of tissue at 0.2 to 0.4 uCi, iv after 30 mins; type: ADME, organism-based; conditions: in vivo, 0.5 h
Kidney [12] = assay: Biodistribution in ddY mouse kidney assessed per gram of tissue at 0.2 to 0.4 uCi, iv after 60 mins; type: ADME, organism-based; conditions: in vivo, 1 h
Intestine [13] = assay: Biodistribution in ddY mouse intestine assessed per gram of tissue at 0.2 to 0.4 uCi, iv after 2 mins; type: ADME, organism-based; conditions: in vivo
Intestine [14] = assay: Biodistribution in ddY mouse intestine assessed per gram of tissue at 0.2 to 0.4 uCi, iv after 10 mins; type: ADME, organism-based; conditions: in vivo
Intestine [15] = assay: Biodistribution in ddY mouse intestine assessed per gram of tissue at 0.2 to 0.4 uCi, iv after 30 mins; type: ADME, organism-based; conditions: in vivo, 0.5 h
Intestine [16] = assay: Biodistribution in ddY mouse intestine assessed per gram of tissue at 0.2 to 0.4 uCi, iv after 60 mins; type: ADME, organism-based; conditions: in vivo, 1 h
Spleen [17] = assay: Biodistribution in ddY mouse spleen assessed per gram of tissue at 0.2 to 0.4 uCi, iv after 2 mins; type: ADME, organism-based; conditions: in vivo
Spleen [18] = assay: Biodistribution in ddY mouse spleen assessed per gram of tissue at 0.2 to 0.4 uCi, iv after 10 mins; type: ADME, organism-based; conditions: in vivo
Spleen [19] = assay: Biodistribution in ddY mouse spleen assessed per gram of tissue at 0.2 to 0.4 uCi, iv after 30 mins; type: ADME, organism-based; conditions: in vivo, 0.5 h
Spleen [20] = assay: Biodistribution in ddY mouse spleen assessed per gram of tissue at 0.2 to 0.4 uCi, iv after 60 mins; type: ADME, organism-based; conditions: in vivo, 1 h
Pancreas [21] = assay: Biodistribution in ddY mouse pancreas assessed per gram of tissue at 0.2 to 0.4 uCi, iv after 2 mins; type: ADME, organism-based; conditions: in vivo
Pancreas [22] = assay: Biodistribution in ddY mouse pancreas assessed per gram of tissue at 0.2 to 0.4 uCi, iv after 10 mins; type: ADME, organism-based; conditions: in vivo
Pancreas [23] = assay: Biodistribution in ddY mouse pancreas assessed per gram of tissue at 0.2 to 0.4 uCi, iv after 30 mins; type: ADME, organism-based; conditions: in vivo, 0.5 h
Pancreas [24] = assay: Biodistribution in ddY mouse pancreas assessed per gram of tissue at 0.2 to 0.4 uCi, iv after 60 mins; type: ADME, organism-based; conditions: in vivo, 1 h
Heart [25] = assay: Biodistribution in ddY mouse heart assessed per gram of tissue at 0.2 to 0.4 uCi, iv after 2 mins; type: ADME, organism-based; conditions: in vivo
Heart [26] = assay: Biodistribution in ddY mouse heart assessed per gram of tissue at 0.2 to 0.4 uCi, iv after 10 mins; type: ADME, organism-based; conditions: in vivo
Heart [27] = assay: Biodistribution in ddY mouse heart assessed per gram of tissue at 0.2 to 0.4 uCi, iv after 30 mins; type: ADME, organism-based; conditions: in vivo, 0.5 h
Heart [28] = assay: Biodistribution in ddY mouse heart assessed per gram of tissue at 0.2 to 0.4 uCi, iv after 60 mins; type: ADME, organism-based; conditions: in vivo, 1 h
Stomach [29] = assay: Biodistribution in ddY mouse stomach assessed per gram of tissue at 0.2 to 0.4 uCi, iv after 2 mins; type: ADME, organism-based; conditions: in vivo
Stomach [30] = assay: Biodistribution in ddY mouse stomach assessed per gram of tissue at 0.2 to 0.4 uCi, iv after 10 mins; type: ADME, organism-based; conditions: in vivo
Stomach [31] = assay: Biodistribution in ddY mouse stomach assessed per gram of tissue at 0.2 to 0.4 uCi, iv after 30 mins; type: ADME, organism-based; conditions: in vivo, 0.5 h
Stomach [32] = assay: Biodistribution in ddY mouse stomach assessed per gram of tissue at 0.2 to 0.4 uCi, iv after 60 mins; type: ADME, organism-based; conditions: in vivo, 1 h
Brain [33] = assay: Biodistribution in ddY mouse brain assessed per gram of tissue at 0.2 to 0.4 uCi, iv after 2 mins; type: ADME, organism-based; conditions: in vivo
Brain [34] = assay: Biodistribution in ddY mouse brain assessed per gram of tissue at 0.2 to 0.4 uCi, iv after 10 mins; type: ADME, organism-based; conditions: in vivo
Brain [35] = assay: Biodistribution in ddY mouse brain assessed per gram of tissue at 0.2 to 0.4 uCi, iv after 30 mins; type: ADME, organism-based; conditions: in vivo, 0.5 h
Brain [36] = assay: Biodistribution in ddY mouse brain assessed per gram of tissue at 0.2 to 0.4 uCi, iv after 60 mins; type: ADME, organism-based; conditions: in vivo, 1 h
[37] = Octanol-water partition coefficient, log P of the compound at pH 7.4; type: physicochemical
Brain [38] = assay: Drug elimination from ddY mouse brain assessed per gram of tissue after 60 mins; type: ADME, organism-based; conditions: in vivo, 1 h
Bone [39] = assay: Biodistribution in ddY mouse bone assessed per gram of tissue at 0.2 to 0.4 uCi, iv after 2 mins; type: ADME, organism-based, Bone element; conditions: in vivo
Bone [40] = assay: Biodistribution in ddY mouse bone assessed per gram of tissue at 0.2 to 0.4 uCi, iv after 10 mins; type: ADME, organism-based, Bone element; conditions: in vivo
Bone [41] = assay: Biodistribution in ddY mouse bone assessed per gram of tissue at 0.2 to 0.4 uCi, iv after 30 mins; type: ADME, organism-based, Bone element; conditions: in vivo, 0.5 h
Bone [42] = assay: Biodistribution in ddY mouse bone assessed per gram of tissue at 0.2 to 0.4 uCi, iv after 60 mins; type: ADME, organism-based, Bone element; conditions: in vivo, 1 h
[43] = target: Amyloid-beta precursor protein (Homo sapiens) (UniProt P05067); assay: Binding affinity to beta-amyloid plaque in brain of patient with Alzheimers disease at 1.6 uCi after 1 hr by autoradiography; type: tissue-based; conditions: tested as the 125I-labelled form
[44] = target: Amyloid-beta precursor protein (Homo sapiens) (UniProt P05067); assay: Binding affinity to beta-amyloid plaque in normal human brain sections at 1.6 uCi after 1 hr by autoradiography; conditions: tested as the 125I-labelled form
Mus musculus [45] = species: Mus musculus; assay: Binding affinity to amyloid beta (1 to 42) in wild type mouse brain sections by neuropathological staining method; type: tissue-based
Mus musculus [46] = species: Mus musculus; assay: Binding affinity to amyloid beta (1 to 42) in Tg2576 mouse brain sections by neuropathological staining method; type: tissue-based
[47] = Displacement of [125I]IMPY from amyloid beta (1 to 42) after 3 hrs by gamma counting

Sequence of Amyloid-beta precursor protein (Homo sapiens) (P05067 whole entry): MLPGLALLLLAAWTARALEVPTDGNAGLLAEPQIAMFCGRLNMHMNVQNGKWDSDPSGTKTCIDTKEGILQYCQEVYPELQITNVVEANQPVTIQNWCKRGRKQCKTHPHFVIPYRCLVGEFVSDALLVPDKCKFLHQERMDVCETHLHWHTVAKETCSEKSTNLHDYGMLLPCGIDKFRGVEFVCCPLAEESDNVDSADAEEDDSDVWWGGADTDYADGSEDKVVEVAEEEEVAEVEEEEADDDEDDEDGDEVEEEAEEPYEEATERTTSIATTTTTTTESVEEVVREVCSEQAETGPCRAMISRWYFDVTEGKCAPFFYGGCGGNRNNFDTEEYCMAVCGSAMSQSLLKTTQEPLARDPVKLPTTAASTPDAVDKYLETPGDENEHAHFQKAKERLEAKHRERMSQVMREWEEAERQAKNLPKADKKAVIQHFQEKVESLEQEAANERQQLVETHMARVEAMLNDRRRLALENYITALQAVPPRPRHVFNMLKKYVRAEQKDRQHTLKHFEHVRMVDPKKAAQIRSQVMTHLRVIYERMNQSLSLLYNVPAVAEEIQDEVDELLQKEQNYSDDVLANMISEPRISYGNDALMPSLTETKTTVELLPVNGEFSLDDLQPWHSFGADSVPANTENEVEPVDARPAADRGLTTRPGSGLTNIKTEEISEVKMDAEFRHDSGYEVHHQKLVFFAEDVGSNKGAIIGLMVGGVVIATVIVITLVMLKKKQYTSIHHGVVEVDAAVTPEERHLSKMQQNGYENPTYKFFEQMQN

## O=C1/C(=C/c2ccc(OCCF)cc2)Oc2ccc([125I])cc21
Blood [1]
  Drug uptake: 1.29 %ID
Blood [2]
  Drug uptake: 3.13 %ID
Blood [3]
  Drug uptake: 1.94 %ID
Blood [4]
  Drug uptake: 6.7 %ID
Liver [5]
  Drug uptake: 17.06 %ID
Liver [6]
  Drug uptake: 16.5 %ID
Liver [7]
  Drug uptake: 12.44 %ID
Liver [8]
  Drug uptake: 10.96 %ID
Kidney [9]
  Drug uptake: 6.96 %ID
Kidney [10]
  Drug uptake: 7.53 %ID
Kidney [11]
  Drug uptake: 5.49 %ID
Kidney [12]
  Drug uptake: 5.22 %ID
Intestine [13]
  Drug uptake: 2.02 %ID
Intestine [14]
  Drug uptake: 6.53 %ID
Intestine [15]
  Drug uptake: 12.35 %ID
Intestine [16]
  Drug uptake: 15.74 %ID
Spleen [17]
  Drug uptake: 3.74 %ID
Spleen [18]
  Drug uptake: 4.33 %ID
Spleen [19]
  Drug uptake: 3.61 %ID
Spleen [20]
  Drug uptake: 2.37 %ID
Pancreas [21]
  Drug uptake: 3.44 %ID
Pancreas [22]
  Drug uptake: 1.33 %ID
Pancreas [23]
  Drug uptake: 0.8 %ID
Pancreas [24]
  Drug uptake: 1.35 %ID
Heart [25]
  Drug uptake: 4.9 %ID
Heart [26]
  Drug uptake: 1.95 %ID
Heart [27]
  Drug uptake: 1.54 %ID
Heart [28]
  Drug uptake: 1.19 %ID
Stomach [29]
  Drug uptake: 0.61 %ID
Stomach [30]
  Drug uptake: 1.46 %ID
Stomach [31]
  Drug uptake: 0.79 %ID
Stomach [32]
  Drug uptake: 0.89 %ID
Brain [33]
  Drug uptake: 2.34 %ID
Brain [34]
  Drug uptake: 0.84 %ID
Brain [35]
  Drug uptake: 0.19 %ID
Brain [36]
  Drug uptake: 0.19 %ID
[37]
  logD: 2.45
Brain [38]
  CL: 0.19 %ID

## O=C1/C(=C/c2ccc(OCC[18F])cc2)Oc2ccc(I)cc21
Blood [1]
  Drug uptake: 2.61 %ID
Blood [2]
  Drug uptake: 2.84 %ID
Blood [3]
  Drug uptake: 2.68 %ID
Blood [4]
  Drug uptake: 5.72 %ID
Brain [33]
  Drug uptake: 3.66 %ID
Brain [34]
  Drug uptake: 2.37 %ID
Brain [35]
  Drug uptake: 1.77 %ID
Brain [36]
  Drug uptake: 1.75 %ID
Bone [39]
  Drug uptake: 2.03 %ID
Bone [40]
  Drug uptake: 2.13 %ID
Bone [41]
  Drug uptake: 3.45 %ID
Bone [42]
  Drug uptake: 3.42 %ID
Brain [38]
  CL: 1.75 %ID

## O=C1/C(=C/c2ccc(OCCF)cc2)Oc2ccc(I)cc21
[43]
  Activity: Active
[44]
  Activity: inactive
Mus musculus [45]
  Activity: inactive
Mus musculus [46]
  Activity: Active
[47]
  Activity: Dose-dependent effect
  Ki: 6.81 nM
